The target in this assay is PIK3CA (UniProt P42336). In words: PI3K Inhibition.

One may read the IC50 as the midpoint of a concentration-inhibition curve. The low end stands for higher potency, the high end for lower potency.

Sequence of PIK3CA (P42336 whole entry, looked up): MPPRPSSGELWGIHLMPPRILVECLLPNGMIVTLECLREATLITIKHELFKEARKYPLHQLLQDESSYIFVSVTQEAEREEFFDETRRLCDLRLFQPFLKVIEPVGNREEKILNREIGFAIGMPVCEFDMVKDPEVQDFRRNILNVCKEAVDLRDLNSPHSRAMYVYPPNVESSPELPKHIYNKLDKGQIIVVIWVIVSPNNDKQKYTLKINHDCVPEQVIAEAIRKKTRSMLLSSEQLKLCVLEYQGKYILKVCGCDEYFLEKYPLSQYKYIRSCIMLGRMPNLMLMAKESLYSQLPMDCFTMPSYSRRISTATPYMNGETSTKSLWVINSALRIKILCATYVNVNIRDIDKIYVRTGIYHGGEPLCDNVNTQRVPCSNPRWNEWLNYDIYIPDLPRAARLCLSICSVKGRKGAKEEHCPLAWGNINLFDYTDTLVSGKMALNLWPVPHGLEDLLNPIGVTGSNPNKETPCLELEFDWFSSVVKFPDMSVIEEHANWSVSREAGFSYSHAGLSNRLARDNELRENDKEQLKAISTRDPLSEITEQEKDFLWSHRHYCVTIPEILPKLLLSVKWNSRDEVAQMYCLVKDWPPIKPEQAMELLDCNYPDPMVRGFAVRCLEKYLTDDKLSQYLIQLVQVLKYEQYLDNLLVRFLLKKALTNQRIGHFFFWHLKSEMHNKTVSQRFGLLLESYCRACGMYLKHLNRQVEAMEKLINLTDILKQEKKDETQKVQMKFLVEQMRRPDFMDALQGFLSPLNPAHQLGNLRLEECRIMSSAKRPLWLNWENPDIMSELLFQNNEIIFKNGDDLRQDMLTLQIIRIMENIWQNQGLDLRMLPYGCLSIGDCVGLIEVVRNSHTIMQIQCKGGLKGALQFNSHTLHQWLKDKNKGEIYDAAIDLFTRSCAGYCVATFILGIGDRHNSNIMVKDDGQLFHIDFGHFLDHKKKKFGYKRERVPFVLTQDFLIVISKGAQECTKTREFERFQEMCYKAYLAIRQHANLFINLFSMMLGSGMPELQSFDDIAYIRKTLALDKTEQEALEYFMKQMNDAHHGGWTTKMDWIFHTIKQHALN

For the compound `CO[C@H]1C[C@@H](C)CC2=C(NCCCOc3ccc4c(=O)cc(N5CCOCC5)oc4c3)C(=O)C=C(NC(=O)C(C)=CC=C[C@@H](OC)[C@H](OC(N)=O)C(C)=C[C@H](C)[C@H]1O)C2=O`, the IC50 is over 500 µM. `CO[C@H]1C[C@@H](C)CC2=C(NCCCCCCCOc3ccc4c(=O)cc(N5CCOCC5)oc4c3C)C(=O)C=C(NC(=O)C(C)=CC=C[C@@H](OC)[C@H](OC(N)=O)C(C)=C[C@H](C)[C@H]1O)C2=O`: the IC50 is 5 µM.

Compound `C=CCNC1=C2C[C@@H](C)C[C@H](OC)[C@H](O)[C@@H](C)C=C(C)[C@H](OC(N)=O)[C@@H](OC)C=CC=C(C)C(=O)NC(=CC1=O)C2=O` returned an IC50 of over 500 µM. `CO[C@H]1C[C@@H](C)CC2=C(NCC#Cc3cccc4c(=O)cc(N5CCOCC5)oc34)C(=O)C=C(NC(=O)C(C)=CC=C[C@@H](OC)[C@H](OC(N)=O)C(C)=C[C@H](C)[C@H]1O)C2=O` displayed an IC50 of 3 µM. Turning to `CO[C@H]1C[C@@H](C)CC2=C(NCCOCCOc3ccc4c(=O)cc(N5CCOCC5)oc4c3C)C(=O)C=C(NC(=O)C(C)=CC=C[C@@H](OC)[C@H](OC(N)=O)C(C)=C[C@H](C)[C@H]1O)C2=O`, the IC50 was 70 µM.

In turn, `CO[C@H]1C[C@@H](C)CC2=C(NCCCCCCOc3ccc4c(=O)cc(N5CCOCC5)oc4c3)C(=O)C=C(NC(=O)C(C)=CC=C[C@@H](OC)[C@H](OC(N)=O)C(C)=C[C@H](C)[C@H]1O)C2=O` displayed an IC50 of over 500 µM. In turn, `CO[C@H]1C[C@@H](C)CC2=C(NCCCCOc3ccc4c(=O)cc(N5CCOCC5)oc4c3)C(=O)C=C(NC(=O)C(C)=CC=C[C@@H](OC)[C@H](OC(N)=O)C(C)=C[C@H](C)[C@H]1O)C2=O` gave an IC50 of 200 µM. In the case of `CO[C@H]1C[C@@H](C)CC2=C(NCCCCCOc3ccc4c(=O)cc(N5CCOCC5)oc4c3)C(=O)C=C(NC(=O)C(C)=CC=C[C@@H](OC)[C@H](OC(N)=O)C(C)=C[C@H](C)[C@H]1O)C2=O`, the IC50 worked out at 310 µM. For the compound `CO[C@H]1C[C@@H](C)CC2=C(NCCCCCCCCOc3ccc4c(=O)cc(N5CCOCC5)oc4c3C)C(=O)C=C(NC(=O)C(C)=CC=C[C@@H](OC)[C@H](OC(N)=O)C(C)=C[C@H](C)[C@H]1O)C2=O`, the IC50 came to 28 µM. As for `CO[C@H]1C[C@@H](C)CC2=C(NCCCC#Cc3cccc4c(=O)cc(N5CCOCC5)oc34)C(=O)C=C(NC(=O)C(C)=CC=C[C@@H](OC)[C@H](OC(N)=O)C(C)=C[C@H](C)[C@H]1O)C2=O`, the IC50 was 13.5 µM. In turn, `CO[C@H]1C[C@@H](C)CC2=C(NCCOCCOc3ccc4c(=O)cc(N5CCOCC5)oc4c3)C(=O)C=C(NC(=O)C(C)=CC=C[C@@H](OC)[C@H](OC(N)=O)C(C)=C[C@H](C)[C@H]1O)C2=O` displayed an IC50 of 85 µM.

Source of the values: the Kinase Knowledgebase extract (Sharma et al. 2016).
